This is an account of results in ChEMBL document CHEMBL3872220, “Amphiphilic xanthones as a potent chemical entity of anti-mycobacterial agents with membrane-targeting properties” (Eur J Med Chem, 2016).

Converted amounts (≈) assume the structure as drawn.

Series [1] deals with Mycolicibacterium smegmatis. The series is described as follows: Antimycobacterial activity against Mycobacterium smegmatis MC2 155 assessed as inhibition of respiratory ATP synthesis by measuring ATP level at 800 ug/ml measured after 9 hrs by luciferase […] assay (reference value: 212.7%). Type of series: functional, str. MC2 155. More on the design: scale not given: the % may be the effect or the level left. (A reporter such as luciferase makes a cellular process visible.)

Series [2] has as its system Mycolicibacterium smegmatis. Briefly: Antimycobacterial activity against Mycobacterium smegmatis MC2 155 assessed as inhibition of respiratory ATP synthesis by measuring ATP level at 800 ug/ml measured after 3 hrs by luciferase reporter gene assay (reference value: 158.3%). The format is functional, str. MC2 155. More on the design: scale not given: the % may be the effect or the level left.

Series [3] has as its system Mycolicibacterium smegmatis. The series is described as follows: Antimycobacterial activity against Mycobacterium smegmatis MC2 155 assessed as inhibition of respiratory ATP synthesis by measuring ATP level at 800 ug/ml measured after 6 hrs by luciferase reporter gene assay (reference value: 152%). The format is functional, str. MC2 155. The arrangement: scale not given: the % may be the effect or the level left.

The test system of series [4] is Mycolicibacterium smegmatis. The series is described as follows: Antimycobacterial activity against Mycobacterium smegmatis MC2 155 assessed as inhibition of respiratory ATP synthesis by measuring ATP level at 800 ug/ml measured after 1 hr by luciferase reporter gene assay (reference value: 90.6%). The format is functional, str. MC2 155. More on the design: scale not given: the % may be the effect or the level left.

A short description of series [5]: Hemolytic activity against New Zealand white rabbit RBC assessed as hemoglobin release measured after 1 hr. Type of series: ADME, cell-based, Oryctolagus cuniculus, Erythrocyte. The note with it: red blood cells.
Series [6] concerns Mycolicibacterium smegmatis. The series is described as follows: Antimycobacterial activity against Mycobacterium smegmatis MC2 155 after 24 hrs by broth dilution assay. Type of series: functional. The note with it: str. MC2 155, 24 h. Background: Broth dilution looks for growth in wells or tubes with falling amounts of substance.
Series [7] is described as follows: Cytotoxicity against human corneal fibroblasts assessed as increase in LDH level measured after 4 hrs by Cytotox-one […] assay. Type of series: toxicity, Corneal fibroblast.
For series [8], the target named is CYP3A4 (Homo sapiens, UniProt P08684). Briefly: Inhibition of CYP3A4 in human liver microsomes at 10 uM using midazolam as substrate preincubated for 5 min followed by NADPH addition measured after 10 mins by LC-MS/MS method relative to control. Type of series: ADME. The note with it: probe midazolam. (In general: Microsomes from liver hold many membrane-bound enzymes, among them those of drug oxidation.)

Series [9] concerns the target CYP2D6 (Homo sapiens, UniProt P10635). The series is described as follows: Inhibition of CYP2D6 in human liver microsomes at 10 uM using bufuralol as substrate preincubated for 5 min followed by NADPH addition measured after 10 mins by LC-MS/MS method relative to control. The format is ADME. The note with it: probe bufuralol.
The nature of series [10]: Cytotoxicity against human corneal fibroblasts assessed as reduction in ATP level measured after 4 hrs by Celltiter-Glo luminescent assay. The format is toxicity, Corneal fibroblast.
Series [11] can be described thus: Drug metabolism in rat liver microsomes at 1 uM preincubated for 5 mins followed by NADPH addition measured up to 30 mins by LC-MS/MS method. Type of series: ADME. The note with it: read-out: Drug metabolism.
Series [12] addresses CYP2C19 (Homo sapiens, UniProt P33261). Briefly: Inhibition of CYP2C19 in human liver microsomes at 10 uM using omeprazole as substrate preincubated for 5 min followed by NADPH addition measured after 10 mins by LC-MS/MS method relative to control. The format is ADME. The note with it: probe omeprazole.
Series [13] in a line: Half life in rat liver microsomes at 1 uM preincubated for 5 mins followed by NADPH addition measured by LC-MS/MS method. The format is ADME.
The test system of series [14] is Mycolicibacterium smegmatis. The series is described as follows: Antimycobacterial activity against Mycobacterium smegmatis MC2 155 assessed as inhibition of respiratory ATP synthesis by measuring ATP level at 4 times MIC measured after 6 hrs by luciferase reporter gene assay (reference value: 152%). The format is functional, str. MC2 155. More on the design: scale not given: the % may be the effect or the level left.

Series [15] relates to Mycolicibacterium smegmatis. The series is described as follows: Antimycobacterial activity against Mycobacterium smegmatis MC2 155 assessed as inhibition of respiratory ATP synthesis by measuring ATP level at 4 times MIC measured after 1 hr by luciferase reporter gene assay (reference value: 90.6%). Type of series: functional, str. MC2 155. The arrangement: scale not given: the % may be the effect or the level left.

Series [16] has as its system Mycolicibacterium smegmatis. Briefly: Antimycobacterial activity against Mycobacterium smegmatis MC2 155 assessed as inhibition of respiratory ATP synthesis by measuring ATP level at 2 times MIC measured after 3 hrs by luciferase reporter gene assay (reference value: 158.3%). The arrangement: scale not given: the % may be the effect or the level left. The format is functional, str. MC2 155.

In series [17] the test system is Mycolicibacterium smegmatis. Briefly: Antimycobacterial activity against Mycobacterium smegmatis MC2 155 assessed as inhibition of respiratory ATP synthesis by measuring ATP level at 4 times MIC measured after 6 hrs by luciferase reporter gene assay (reference value: 212.7%). The format is functional, str. MC2 155. More on the design: scale not given: the % may be the effect or the level left.

Sequence of CYP3A4 (P08684 whole entry): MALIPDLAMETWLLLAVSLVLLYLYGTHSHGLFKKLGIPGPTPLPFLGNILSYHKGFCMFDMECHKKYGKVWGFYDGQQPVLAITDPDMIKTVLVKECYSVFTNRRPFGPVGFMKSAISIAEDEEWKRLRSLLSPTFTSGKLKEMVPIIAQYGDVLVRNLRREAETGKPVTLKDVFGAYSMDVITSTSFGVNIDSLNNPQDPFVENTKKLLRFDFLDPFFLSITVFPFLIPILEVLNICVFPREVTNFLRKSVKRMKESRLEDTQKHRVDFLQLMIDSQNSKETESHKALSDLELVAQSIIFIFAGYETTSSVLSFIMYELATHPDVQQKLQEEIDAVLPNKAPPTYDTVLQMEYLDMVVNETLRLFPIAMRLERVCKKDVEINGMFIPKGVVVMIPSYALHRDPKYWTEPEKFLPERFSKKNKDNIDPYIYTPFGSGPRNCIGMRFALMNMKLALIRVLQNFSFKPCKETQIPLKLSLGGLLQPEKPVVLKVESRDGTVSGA
Sequence of CYP2D6 (P10635 whole entry): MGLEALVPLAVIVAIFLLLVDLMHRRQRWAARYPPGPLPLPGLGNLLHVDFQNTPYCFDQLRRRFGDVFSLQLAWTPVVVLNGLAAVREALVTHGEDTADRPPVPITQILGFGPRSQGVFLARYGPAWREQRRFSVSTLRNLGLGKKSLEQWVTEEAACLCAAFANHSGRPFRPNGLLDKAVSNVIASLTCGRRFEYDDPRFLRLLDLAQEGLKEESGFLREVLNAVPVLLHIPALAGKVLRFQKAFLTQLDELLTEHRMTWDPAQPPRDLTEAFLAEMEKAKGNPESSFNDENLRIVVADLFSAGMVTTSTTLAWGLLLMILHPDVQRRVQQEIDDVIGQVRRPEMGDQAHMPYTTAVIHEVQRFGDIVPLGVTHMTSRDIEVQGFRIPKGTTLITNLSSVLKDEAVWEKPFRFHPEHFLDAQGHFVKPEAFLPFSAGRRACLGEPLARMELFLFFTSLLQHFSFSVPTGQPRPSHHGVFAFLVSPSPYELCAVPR
Sequence of CYP2C19 (P33261 whole entry): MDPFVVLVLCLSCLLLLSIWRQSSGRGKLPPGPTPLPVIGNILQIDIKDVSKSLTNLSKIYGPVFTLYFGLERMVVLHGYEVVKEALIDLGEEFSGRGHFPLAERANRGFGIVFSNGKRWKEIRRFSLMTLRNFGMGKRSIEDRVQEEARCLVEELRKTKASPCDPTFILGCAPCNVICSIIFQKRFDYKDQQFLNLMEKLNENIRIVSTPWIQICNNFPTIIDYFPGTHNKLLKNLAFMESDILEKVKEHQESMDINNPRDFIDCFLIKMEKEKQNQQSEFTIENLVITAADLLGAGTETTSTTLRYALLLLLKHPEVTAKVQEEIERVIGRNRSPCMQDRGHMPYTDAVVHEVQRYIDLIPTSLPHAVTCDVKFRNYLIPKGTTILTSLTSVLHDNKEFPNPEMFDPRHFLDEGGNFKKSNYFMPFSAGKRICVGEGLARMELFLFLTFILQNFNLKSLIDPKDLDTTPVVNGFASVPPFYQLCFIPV

Turning to `O=C(CC(=O)C(F)(F)F)c1cccs1`, the Activity in series [1] worked out at 26.3%; in series [2], 25.8%; in [3], 17.4%; in series [4], 36.8%.

As to `CCCCN(CC)CCCCOc1cc2oc3cc(OCCCCN(CC)CCCC)c(OC)c(CC=C(C)C)c3c(=O)c2c(O)c1CC=C(C)C`, in series [5], the concentration for 50% haemolysis (HC50) at 1 h was more than 277 µM. In series [6], this compound had an MIC90 of more than 30 µM.

In the case of `CCN(CC)CCCCOc1cc2oc3cc(OCCCCN(CC)CC)c(OC)c(CC=C(C)C)c3c(=O)c2c(OCCCCN(CC)CC)c1CC=C(C)C`, the results for the CC50 at 4 h in series [7] and in [10] were more than 150 µM and 43.7 µM, respectively. In addition, the values for the inhibition at 10 min, 10 µM in [8], in series [9] and in series [12] were 40%, 30% and 10%, respectively. The concentration for 50% haemolysis (HC50) at 1 h in series [5] is more than 252 µM. In [11], the metabolised at 0.5 h, 1 µM came out at 11.6%. Also, the half-life at 1 µM in [13] was more than 30 min. In addition, the MIC90 in [6] is more than 30 µM.

In the case of `CO[C@H]1/C=C/O[C@@]2(C)Oc3c(C)c(O)c4c(O)c(c(/C=N/N5CCN(C)CC5)c(O)c4c3C2=O)NC(=O)/C(C)=C\C=C\[C@H](C)[C@H](O)[C@@H](C)[C@@H](O)[C@@H](C)[C@H](OC(C)=O)[C@@H]1C` [RIFAMPIN], the figures for the Activity in series [14], in series [15] and in series [16] were 66.5%, 123.4% and 95.6%, respectively. Also, in series [6], the MIC90 amounted to 2.5 µM (≈ 2.06 µg/mL).

As to `COc1c(OCC(=O)NC(CCCNC(=N)N)C(N)=O)cc2oc3cc(OCC(=O)NC(CCCNC(=N)N)C(N)=O)c(CC=C(C)C)c(O)c3c(=O)c2c1CC=C(C)C` (stereo not drawn), the 50% cytotoxic concentration (CC50) at 4 h is 119 µM in series [7] and 60.1 µM in series [10]. Further, the values for the inhibition at 10 min, 10 µM in series [8], in series [9] and in series [12] were 42%, 2% and 3%, respectively. Also, the HC50 at 1 h in series [5] amounted to 183 µM. For the same compound, in [11], the metabolised at 0.5 h, 1 µM is 14.4%. This compound also displayed a half-life at 1 µM in series [13] of more than 30 min. For the same compound, in series [6], the MIC90 was more than 30 µM.

On to `C(=NC1CCCCC1)=NC1CCCCC1` [DICYCLOHEXYLCARBODIIMIDE], for which the Activity in [1] is recorded as 13.3%; in series [2] it was 6.7%; in series [3] it was 11.1%; in series [4], 7%.

On to `CCN(CC)CCCOc1cc2oc3cc(OCCCN(CC)CC)c(OC)c(CC=C(C)C)c3c(=O)c2c(O)c1CC=C(C)C`, for which the MIC90 in series [6] came to 3.2 µM (≈ 2.04 µg/mL).

As for `CC[C@@H](CO)NCCN[C@@H](CC)CO` [ETHAMBUTOL], the Activity in series [14] is given as 71.3%; in [15] it was 113.5%; in series [17] it was 79.7%; in [16], 13.1%. In [6], this compound came in with an MIC90 of 1.25 µM (≈ 0.255 µg/mL).

In the case of `COc1c(OCC(O)CNC(CO)(CO)CO)cc2oc3cc(OCC(O)CNC(CO)(CO)CO)c(CC=C(C)C)c(O)c3c(=O)c2c1CC=C(C)C` (stereo not drawn), in series [5], the concentration for 50% haemolysis (HC50) at 1 h was determined as 33.2 µM. This compound also registered an MIC90 in [6] of 26 µM (≈ 19.9 µg/mL).

In the case of `CN[C@@H]1[C@H](O[C@H]2[C@H](O[C@H]3[C@H](O)[C@@H](O)[C@H](N=C(N)N)[C@@H](O)[C@@H]3N=C(N)N)O[C@@H](C)[C@]2(O)C=O)O[C@@H](CO)[C@H](O)[C@H]1O` [STREPTOMYCIN], the Activity in [14] was 59.9%; in series [15], 114.4%; in series [17], 75.7%; in series [16] it was 75.7%. In series [6], this compound displayed an MIC90 of 0.625 µM (≈ 0.363 µg/mL).

Turning to `COC(=O)C(Cc1cnc[nH]1)NC(=O)COc1cc2oc3cc(OCC(=O)NC(Cc4cnc[nH]4)C(=O)OC)c(OC)c(CC=C(C)C)c3c(=O)c2c(O)c1CC=C(C)C` (stereo not drawn), the concentration for 50% haemolysis (HC50) at 1 h in [5] was more than 241 µM. Also, in series [6], the MIC90 was more than 30 µM.

For the compound `COc1c(OCCCCN(C)C)cc2oc3cc(OCCCCN(C)C)c(CCC(C)C)c(O)c3c(=O)c2c1CCC(C)C`, in series [6], the MIC90 stood at 6.4 µM (≈ 3.92 µg/mL).

The HC50 is the concentration giving 50% haemolysis. In general, MIC90 refers to an inhibitory concentration at the 90% level, which refers to growth in some studies and to a panel of isolates in others. One may read the CC50 as the concentration giving 50% cytotoxicity. A word on the inhibition: it is the change of the read-out against control, counted positive when it falls. What is called half-life is the time in which the quantity being followed falls by half.
